Laboratory results taken from US20180217163A1, “TREATMENT OF NEURODEGENERATIVE CONDITIONS USING PKC ACTIVATORS AFTER DETERMINING THE PRESENCE OF THE APOE4 ALLELE” (priority 2015, published 2018).
Where two headings read alike, the source gives them in different places.

What was measured:
PKC [1] = conditions: cited from earlier work
[2] = in vivo; cited from earlier work
HDAC4 = HDAC4 nuclear translocation in SH-SY5Y cells (immunoblot); format: cell-based, human
Protocol: (§1) Human SH-SY5Y neuroblastoma cells (Sigma-Aldrich), were cultured in 45% F12K, 45% MEM, and 10% FBS. Cells were treated with cholesterol, ASPD, ApoE3/ApoE4+cholesterol, or PKC activators for 24 h. Cholesterol was dissolved in ethanol. ApoE (20 nM) and cholesterol (100 μM) were mixed separately into the cultures. To block the ApoE receptors, cells were treated with RAP for 30 min before adding ApoE. Human primary neurons (ScienCell Research Laboratories) were plated on poly-L-lysine-coated plates and were maintained in neuronal medium (ScienCell Research Laboratories) supplemented with the neuronal growth supplements (ScienCell Research Laboratories). Half of the culture medium was changed every 3 d and fresh activators were added with every medium change to maintain viable neurons.
A PBS solution of 5×10^6 Human SH-SY5Y neuroblastoma cells was centrifuged and the resultant cell pellet was resuspended and washed twice with cold PBS. After the second wash, the cell pellet was resuspended in 500 μl of hypotonic buffer (20 mM Tris-Cl, pH 7.4, 10 mM NaCl, 3 mM MgCl2, and 1 mM PMSF) and incubated on ice for 15 min. Next, 25 μl of 10% NP-40 was added to the cell suspension and the sample was vortexed for 10 s. The homogenate was centrifuged for 10 min at 1000×g at 4° C. to obtain the cytoplasmic fraction (supernatant) and nuclear fraction (pellet). […] Protein concentration was measured using the Coomassie Plus (Bradford) Protein Assay kit (Pierce).
Protein in samples of the supernetant and nuclear fractions was separated by SDSPAGE in a 4-20% gradient Tris-Glycine gel (Invitrogen). […] The immunoblot proteins were detected using ImageQuant RT-ECL (GE Life Sciences) and densitometric quantification was performed using IMAL software, which was developed at our institution. […]

HDAC6 = HDAC6 nuclear translocation in SH-SY5Y cells (immunoblot); format: cell-based, human
Protocol: as §1
A PBS solution of 5×10^6 Human SH-SY5Y neuroblastoma cells was centrifuged and the resultant cell pellet was resuspended and washed twice with cold PBS. After the second wash, the cell pellet was resuspended in 500 μl of hypotonic buffer (20 mM Tris-Cl, pH 7.4, 10 mM NaCl, 3 mM MgCl2, and 1 mM PMSF) and incubated on ice for 15 min. Next, 25 μl of 10% NP-40 was added to the cell suspension and the sample was vortexed for 10 s. The homogenate was centrifuged for 10 min at 1000×g at 4° C. to obtain the cytoplasmic fraction (supernatant) and nuclear fraction (pellet). After removing the supernetant, the nuclear pellet was resuspended in 50 μl of complete cell extraction buffer (100 mM Tris-Cl, pH 7.4, 2 mM Na3VO4, 100 mM NaCl, 1% Triton X-100, 1 mM EDTA, 10% glycerol, 1 mM EGTA, 0.1% SDS, 1 mM NaF, 0.5% deoxycholate, 20 mM Na4P2O7, and 1 mM PMSF) and incubated on ice for 30 min with vortexing at 10 min intervals. The nuclear lysate was centrifuged at 14,000×g for 30 min at 4° C. to obtain the nuclear fraction (supernatant). Protein concentration was measured using the Coomassie Plus (Bradford) Protein Assay kit (Pierce).
Protein in samples of the supernetant and nuclear fractions was separated by SDSPAGE in a 4-20% gradient Tris-Glycine gel (Invitrogen). The protein was then transferred to nitrocellulose membrane. The membrane was blocked with BSA at room temperature for 15 min and incubated with primary antibody overnight at 4° C. After incubation, the membrane was washed thrice (3×) with TBS-T (Tris-buffered saline-Tween 20) and further incubated with alkaline-phosphatase-conjugated secondary antibody (Jackson Immunoresearch Laboratories) at 1:10,000 dilution for 45 min. Following incubation, the membrane was washed 3× with TBS-T and developed using the 1-step NBT-BCIP substrate (Pierce). […] The immunoblot proteins were detected using ImageQuant RT-ECL (GE Life Sciences) and densitometric quantification was performed using IMAL software, which was developed at our institution. […]

PKCε [3] = target: T1, PKCε (Homo sapiens, UniProt Q02156); assay: Phase IIa clinical trial: PKCε levels after bryostatin; format: in vivo
T1 construct: from tissue; host or cells: blood of trial subjects
T1 sequence (Q02156 1-737): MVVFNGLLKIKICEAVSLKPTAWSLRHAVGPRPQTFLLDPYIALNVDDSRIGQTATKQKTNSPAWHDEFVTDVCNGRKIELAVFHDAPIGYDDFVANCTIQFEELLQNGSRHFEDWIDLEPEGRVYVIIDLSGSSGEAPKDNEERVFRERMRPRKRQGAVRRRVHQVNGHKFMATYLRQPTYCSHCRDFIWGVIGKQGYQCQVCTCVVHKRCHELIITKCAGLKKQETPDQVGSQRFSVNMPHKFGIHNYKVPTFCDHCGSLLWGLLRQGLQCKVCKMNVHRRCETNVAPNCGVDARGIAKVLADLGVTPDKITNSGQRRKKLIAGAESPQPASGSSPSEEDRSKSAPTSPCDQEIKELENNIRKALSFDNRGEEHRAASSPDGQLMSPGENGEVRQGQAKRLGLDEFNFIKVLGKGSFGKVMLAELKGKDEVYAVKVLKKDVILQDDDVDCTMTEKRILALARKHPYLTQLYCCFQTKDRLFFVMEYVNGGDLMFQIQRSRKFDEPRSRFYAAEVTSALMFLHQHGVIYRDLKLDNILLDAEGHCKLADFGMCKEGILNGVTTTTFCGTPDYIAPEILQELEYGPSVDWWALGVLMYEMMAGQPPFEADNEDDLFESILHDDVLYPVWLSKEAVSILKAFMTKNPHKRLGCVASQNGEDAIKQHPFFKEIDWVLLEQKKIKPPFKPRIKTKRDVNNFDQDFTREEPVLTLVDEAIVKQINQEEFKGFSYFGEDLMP

PKCε [4] = target: T2, PKCε (Mus musculus, UniProt P16054); assay: PKCε activation in brain of mice (FIG. 11); format: in vivo; conditions: single intravenous injection
T2 construct: from tissue; host or cells: mouse brain
T2 sequence (P16054 1-737): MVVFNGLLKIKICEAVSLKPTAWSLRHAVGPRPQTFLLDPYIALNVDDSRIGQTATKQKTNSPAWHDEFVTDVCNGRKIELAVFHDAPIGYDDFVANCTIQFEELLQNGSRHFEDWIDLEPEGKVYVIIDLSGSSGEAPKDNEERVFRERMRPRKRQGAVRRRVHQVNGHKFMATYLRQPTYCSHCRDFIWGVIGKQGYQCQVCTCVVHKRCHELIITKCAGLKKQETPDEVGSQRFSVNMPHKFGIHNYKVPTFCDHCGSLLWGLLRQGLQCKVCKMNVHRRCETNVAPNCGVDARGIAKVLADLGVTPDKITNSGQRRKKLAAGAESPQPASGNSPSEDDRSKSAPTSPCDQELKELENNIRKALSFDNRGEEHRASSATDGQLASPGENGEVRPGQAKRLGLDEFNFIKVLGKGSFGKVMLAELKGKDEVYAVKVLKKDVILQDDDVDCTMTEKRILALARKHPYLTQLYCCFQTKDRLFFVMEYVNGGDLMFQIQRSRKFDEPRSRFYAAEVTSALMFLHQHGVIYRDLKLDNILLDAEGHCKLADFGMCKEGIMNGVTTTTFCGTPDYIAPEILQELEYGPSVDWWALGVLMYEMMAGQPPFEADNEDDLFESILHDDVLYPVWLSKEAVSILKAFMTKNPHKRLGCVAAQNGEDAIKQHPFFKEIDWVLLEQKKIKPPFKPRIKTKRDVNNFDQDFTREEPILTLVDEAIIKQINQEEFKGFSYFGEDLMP

[5] = cited from earlier work
PKC [6] = conditions: cited from earlier work; remark: listed apart in the source
PKC [7] = conditions: [3H] phorbol dibutyrate competition; cited from earlier work
[8] = tested on: squamous cell carcinoma and melanoma; conditions: used topically; cited from earlier work
NCI 60 cell line screen = conditions: cited from earlier work
protein kinase C = conditions: (-)-enantiomer; cited from earlier work
PKCε mRNA = PKCε mRNA expression in SH-SY5Y cells (qRT-PCR); format: cell-based, human; conditions: ASPD-treated cells
Protocol: as §1
qRT-PCR was performed and the results analyzed as described previously (Schmittgen et al., Analyzing real-time PCR data by the comparative C(T) method, Nat. Protoc., 3:1101-1108, 2008; Sen et al., 2012 supra). Total RNA (500 ng) was reverse transcribed using oligo(dT) and Superscript III (Invitrogen) at 50° C. for 1 h. The cDNA products were analyzed using a LightCycler 480 II (Roche) PCR machine and LightCycler 480 SYBR Green 1 master mix following the manufacturer's protocol. […]

BDNF mRNA = BDNF mRNA expression in SH-SY5Y cells (qRT-PCR); format: cell-based, human; conditions: ASPD-treated cells
Protocol: as §1
qRT-PCR was performed and the results analyzed as described previously (Schmittgen et al., Analyzing real-time PCR data by the comparative C(T) method, Nat. Protoc., 3:1101-1108, 2008; Sen et al., 2012 supra). Total RNA (500 ng) was reverse transcribed using oligo(dT) and Superscript III (Invitrogen) at 50° C. for 1 h. The cDNA products were analyzed using a LightCycler 480 II (Roche) PCR machine and LightCycler 480 SYBR Green 1 master mix following the manufacturer's protocol. Primers for PKCε (forward primer: […], reverse primer: […], PKCα (forward-[…], reverse: […]), PKC (forward: […], reverse: CCGATG […]), GAPDH (forward: […], reverse: […]), and BDNF (forward: […], reverse: […]; Origene).

[9] = ApoE4+ASPD induced translocation, 24 h
[10] = A-ring bryologs, read-out: affinity for PKC
[11] = RAP 100 nM, 30 min before ApoE+Chol 24 h

## CCCCCCCC(=O)O[C@H]1/C(=C/C(=O)OC)C[C@H]2C[C@H](CO)OC(=O)C[C@H](O)C[C@@H]3CCC[C@H](C[C@@H]4CCO[C@H](/C=C/C(C)(C)[C@]1(O)O2)O4)O3 [Analog 1]
PKC [1]
  affinity for PKC: highest affinity for PKC
PKC [1]; read-out: PKC Affin
  Ki: 0.25 nM

## CCC/C=C/C=C/C(=O)O[C@H]1/C(=C/C(=O)OC)C[C@H]2C[C@H]([C@@H](C)O)OC(=O)C[C@H](O)C[C@@H]3C[C@H](OC(C)=O)C(C)(C)C(O)(C[C@@H]4C/C(=C/C(=O)OC)C[C@H](/C=C/C(C)(C)[C@]1(O)O2)O4)O3 [Bryostatin-1]
[2]
  dose exhibiting no toxicity: 20 μg/week
  dose that may be associated with muscle pain: more than 35 μg/week
HDAC4; [9]
  reduction of nuclear import of HDAC4: 40±8.4%
HDAC6; [9]
  reduction in nuclear HDAC6: 46±9.2%

## CCC/C=C/C=C/C(=O)O[C@H]1/C(=C/C(=O)OC)C[C@H]2C[C@H]([C@@H](C)O)OC(=O)C[C@H](O)C[C@@H]3C[C@H](OC(C)=O)C(C)(C)[C@](O)(C[C@@H]4C/C(=C/C(=O)OC)C[C@H](/C=C/C(C)(C)[C@]1(O)O2)O4)O3 [Bryostatin-1]
PKCε [3]
  synthesis of PKCε: increases the synthesis of PKCε
  time of highest PKCε levels post administration: 1 h
PKCε [4]
  PKCε expression and levels in the brain: activate PKCε expression and increase PKCε levels in the brain of mice
[5]; blood
  t1/2 in the blood stream: 1 h
[5]; in vivo
  crossing of the blood-brain barrier: crosses the blood-brain barrier
[5]; intravenous injection, 100 hrs
  part of initial dose in the blood at 100 hrs: 1%
[5]; single injection
  time detectable in the blood after a single injection: 14 days

## CCC1CC1CC1CC1CC1CC1CC1CC1CC1CC1CC1CC1CCC(=O)OC (centres unmarked) [DHA-CP6, cyclopropanated docosahexaenoic acid methyl ester]
PKC [6]
  effective concentration: 10 nM

## CC1=C[C@]23C(=O)[C@@H](C=C(COC(=O)c4ccccc4)[C@@H](O)[C@]2(O)[C@H]1OC(=O)c1ccccc1)[C@H]1[C@@H](C[C@H]3C)C1(C)C [Ingenol 3,20-dibenzoate]
PKC [7]
  Ki: 240 nM

## C/C=C(/C)C(=O)O[C@H]1C(C)=C[C@]23C(=O)[C@@H](C=C(CO)[C@@H](O)[C@]12O)[C@H]1[C@@H](C[C@H]3C)C1(C)C [Ingenol-3-angelate]
[8]
  antitumor activity: exhibits antitumor activity

## CC1=CC[C@H](C)C(C)(C)[C@@H]1/C=C/C(C)=C/CC[C@@]1(CO)[C@H](CCCO)/C(=C(/C)C=O)CC[C@]1(C)O [Iripallidal]
NCI 60 cell line screen
  GI50 (concentration required to inhibit growth by 50%): from micromolar to nanomolar range

## CCCCCCCCc1ccc2c3c(c[nH]c13)C[C@@H](CO)NC(=O)[C@H](C(C)C)N2C [Octylindolactam V]
Protein kinase C
  EC50: 29 nM

## CCCCCCCC(=O)OC1C(=CC(=O)OC)CC2CC(CO)OC(=O)CC(O)CCOC(C(C)(C)C)CC3CCOC(C=CC(C)(C)C1(O)O2)O3 (centres unmarked) [bryolog 3]
PKC [1]; [10]
  Ki: 6.5 nM

## CCCCCCCC(=O)OC1C(=CC(=O)OC)CC2CC(CO)OC(=O)CC(O)CCOC(c3ccccc3)CC3CCOC(C=CC(C)(C)C1(O)O2)O3 (centres unmarked) [bryolog 4]
PKC [1]; [10]
  Ki: 2.3 nM

## CCCCCCCC(=O)OC1C(=CC(=O)OC)CC2CC(CO)OC(=O)CC(O)CCOC(CCCc3ccc(Br)cc3)CC3CCOC(C=CC(C)(C)C1(O)O2)O3 (centres unmarked) [bryolog 5]
PKC [1]; [10]
  Ki: 1.9 nM

## ASPD+Chol: amyloid-β amylospheroids prepared from Aβ1-42, plus cholesterol
PKCε mRNA
  PKCε mRNA levels: 0.58±0.06 fold
BDNF mRNA
  BDNF mRNA levels: 0.62±0.05 fold
HDAC6; 24 h, immunoblot
  HDAC6 in the nucleus, percentage of total protein: 21.7±2.8%

B1: RAP: recombinant human receptor-associated protein, ApoE receptor binding protein, from Molecular Innovations (protein, UniProt P30533 35-357, looked up)
Alpha-2-macroglobulin …: YSREKNQPKPSPKRESGEEFRMEKLNQLWEKAQRLHLPPVRLAELHADLKIQERDELAWKKLKLDGLDEDGEKEARLIRNLNVILAKYGLDGKKDARQVTSNSLSGTQEDGLDDPRLEKLWHKAKTSGKFSGEELDKLWREFLHHKEKVHEYNVLLETLSRTEEIHENVISPSDLSDIKGSVLHSRHTELKEKLRSINQGLDRLRRVSHQGYSTEAEFEEPRVIDLWDLAQSANLTDKELEAFREELKHFEAKIEKHNHYQKQLEIAHEKLRHAESVGDGERVSRSREKHALLEGRTKELGYTVKKHLQDLSGRISRARHNEL
HDAC4; [11]
  effect of RAP pretreatment on ApoE-mediated nuclear translocation of HDAC4: abolished the effects of ApoE3+Chol and ApoE4+Chol
HDAC6; [11]
  effect of RAP pretreatment on ApoE-mediated nuclear translocation of HDAC6: abolished the effects of ApoE3+Chol and ApoE4+Chol
